From patent US9765075B2, “Substituted bridged urea analogs as sirtuin modulators” (GLAXOSMITHKLINE LLC, priority 2013, dated 2017)

Target: T1, SIRT1 (Homo sapiens, UniProt Q96EB6)
T1 sequence (Q96EB6 1-747): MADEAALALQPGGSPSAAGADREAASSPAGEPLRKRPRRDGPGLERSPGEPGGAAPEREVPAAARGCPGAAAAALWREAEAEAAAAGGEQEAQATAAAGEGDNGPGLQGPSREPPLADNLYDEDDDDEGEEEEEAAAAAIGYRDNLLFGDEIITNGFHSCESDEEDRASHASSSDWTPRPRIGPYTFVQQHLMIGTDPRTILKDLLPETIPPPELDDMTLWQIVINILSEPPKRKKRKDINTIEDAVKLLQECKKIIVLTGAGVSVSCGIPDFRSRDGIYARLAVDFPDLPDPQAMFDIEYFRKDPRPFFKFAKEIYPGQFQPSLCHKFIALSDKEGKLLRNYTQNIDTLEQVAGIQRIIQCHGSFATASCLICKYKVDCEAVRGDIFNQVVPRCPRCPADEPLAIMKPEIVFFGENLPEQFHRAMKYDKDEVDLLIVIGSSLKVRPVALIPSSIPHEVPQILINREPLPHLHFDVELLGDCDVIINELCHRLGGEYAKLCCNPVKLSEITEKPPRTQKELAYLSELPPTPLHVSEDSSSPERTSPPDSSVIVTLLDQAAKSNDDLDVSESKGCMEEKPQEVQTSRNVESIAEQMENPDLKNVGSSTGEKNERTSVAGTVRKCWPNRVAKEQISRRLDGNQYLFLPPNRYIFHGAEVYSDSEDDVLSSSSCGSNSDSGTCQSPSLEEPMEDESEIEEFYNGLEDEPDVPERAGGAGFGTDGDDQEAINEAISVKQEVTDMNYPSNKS
Experiment: Trp mass spectrometry assay (SIRT1 activation)
Format: biochemical
Details: Trp mass spectrometry assay; for Tryp AVG EC1.5 (μM): EC1.5 = concentration of test compound that results in 150% activation of SIRT1; for Emax: percent maximum fold activation of SIRT1, read-out: Tryp % Fold Act
From the text: Mass spectrometry based assays were used to identify modulators of SIRT1 activity. […] The peptide was labeled with the fluorophore 5TMR (excitation 540 nm/emission 580 nm) at the C-terminus. The sequence of the peptide substrate was based on p53 with several modifications. In addition, the methionine residue naturally present in the sequence was replaced with the norleucine because the methionine may be susceptible to oxidation during synthesis and purification. The Trp based assay utilized a peptide having an amino acid residues as follows: Ac-R-H-K-K(Ac)-W-NH2 (SEQ ID NO: 2).
The Trp mass spectrometry assay was conducted as follows. 0.5 μM peptide substrate and 120 μM βNAD^+ were incubated with 10 nM SIRT1 for 25 minutes at 25° C. in a reaction buffer (50 mM HEPES pH 7.5, […] NaCl, 1 mM DTT, 0.05% BSA). The SIRT1 protein was obtained by cloning the SirT1 gene into a T7-promoter containing vector, which was then expressed in BL21(DE3) bacterial cells and purified as described in further detail below. Test compound was added at varying concentrations to this reaction mixture and the resulting reactions were monitored. After the 25 minute incubation with SIRT1, 10 μL of 10% formic acid was added to stop the reaction. The resulting reactions were sealed and frozen for later mass spec analysis. The relative SIRT1 activity was then determined by measuring the amount of 0-acetyl-ADP-ribose (OAADPR) formed (or, alternatively, the amount of deacetylated Trp peptide generated) by the NAD-dependent sirtuin deacetylation reaction in the presence of varying concentrations of the test compound versus control reactions lacking the test compound. The degree to which the test agent activated deacetylation by SIRT1 was expressed as EC1.5 (i.e., the concentration of compound required to increase SIRT1 activity by 50% over the control lacking test compound), and Percent Maximum Activation (i.e., the maximum activity relative to control (100%) obtained for the test compound).
A control for activation of sirtuin activity was conducted using 10 nM of sirtuin protein, with 1 μL of DMSO in place of compound, to determine the amount of deacetylation of the substrate at a given time point within the linear range of the assay. This time point was the same as that used for test compounds and, within the linear range, the endpoint represents a change in velocity.
For the above assay, SIRT1 protein was expressed and purified as follows. The SirT1 gene was cloned into a T7-promoter containing vector and transformed into BL21(DE3). The protein was expressed by induction with 1 mM IPTG as an N-terminal His-tag fusion protein at 18° C. overnight and harvested at 30,000×g. Cells were lysed with lysozyme in lysis buffer (50 mM Tris-HCl, 2 mM Tris[2-carboxyethyl] phosphine (TCEP), 10 μM ZnCl2, 200 mM NaCl) and further treated with sonication for 10 min for complete lysis. The protein was purified over a Ni-NTA column (Amersham) and fractions containing pure protein were pooled, concentrated and run over a sizing column (Sephadex S200 26/60 global). The peak containing soluble protein was collected and run on an Ion-exchange column (MonoQ). Gradient elution (200 mM-500 mM NaCl) yielded pure protein. This protein was concentrated and dialyzed against dialysis buffer (20 mM Iris-HCl, 2 mM TCEP) overnight. The protein was aliquoted and frozen at −80° C. until further use.

Row | SMILES | Tryp AVG EC1.5 (μM) | Emax [%]
1 | Cc1cnccc1NC(=O)N1c2nc(C3CCCC(C(F)(F)F)C3)ccc2N2CC[C@H]1C2 (some centres unmarked) [Example 100] | B (EC1.5 1-25 μM) | ≥ 150
2 | O=C(Nc1cnccn1)N1c2nc(-c3cccc(Cl)c3)ccc2N2CC[C@H]1C2 [Example 101] | A (EC1.5<1 μM) | ≥ 150
3 | Cc1nc(NC(=O)N2c3nc(-c4cccc(Cl)c4)ccc3N3CC[C@H]2C3)sc1C [Example 102] | A (EC1.5<1 μM) | ≥ 150
4 | COc1cc(NC(=O)N2c3nc(-c4cccc(Cl)c4)ccc3N3CC[C@H]2C3)nc(OC)n1 [Example 103] | B (EC1.5 1-25 μM) | ≥ 150
5 | COc1cc(NC(=O)N2c3nc(-c4cccc(Cl)c4)ccc3N3CC[C@H]2C3)ncn1 [Example 104] | B (EC1.5 1-25 μM) | ≥ 150
6 | Cc1cc(C)nc(NC(=O)N2c3nc(-c4cccc(Cl)c4)ccc3N3CC[C@H]2C3)c1 [Example 105] | B (EC1.5 1-25 μM) | ≥ 150
7 | Cc1cccnc1NC(=O)N1c2nc(-c3cccc(Cl)c3)ccc2N2CC[C@H]1C2 [Example 106] | C (EC1.5>25 μM) | ≥ 150
8 | O=C(Nc1cccnc1)N1c2nc(-c3cccc(Cl)c3)ccc2N2CC[C@H]1C2 [Example 107] | – | ≥ 150
9 | Cn1cc(NC(=O)N2c3nc(-c4cccc(Cl)c4)ccc3N3CC[C@H]2C3)cn1 [Example 108] | B (EC1.5 1-25 μM) | ≥ 150
10 | Cn1ccc(NC(=O)N2c3nc(-c4cccc(Cl)c4)ccc3N3CC[C@H]2C3)n1 [Example 109] | B (EC1.5 1-25 μM) | ≥ 150
11 | O=C(Nc1ccncn1)N1c2nc(-c3cccc(Cl)c3)ccc2N2CC[C@H]1C2 [Example 110] | A (EC1.5<1 μM) | ≥ 150
12 | CC1CN2CC1N(C(=O)Nc1ccncc1)c1nc(-c3cccc(C(F)(F)F)c3)ccc12 (centres unmarked) [Example 114] | B (EC1.5 1-25 μM) | ≥ 150
13 | Cn1cc2cc(NC(=O)N3c4nc(-c5cccc(Cl)c5)ccc4N4CC[C@H]3C4)ccc2n1 [Example 118] | A (EC1.5<1 μM) | ≥ 150
14 | O=C(Nc1cncc(F)c1)N1c2nc(-c3cccc(Cl)c3)ccc2N2CC[C@H]1C2 [Example 119] | A (EC1.5<1 μM) | ≥ 150
15 | O=C(Nc1ccnnc1)N1c2nc(-c3cccc(Cl)c3)ccc2N2CC[C@H]1C2 [Example 120] | A (EC1.5<1 μM) | ≥ 150
16 | COc1cncc(NC(=O)N2c3nc(-c4cccc(Cl)c4)ccc3N3CC[C@H]2C3)n1 [Example 121] | A (EC1.5<1 μM) | ≥ 150
17 | O=C(Nc1ccncc1)N1c2nc(-c3cccc(Cl)c3)ccc2N2CC[C@H]1C2 [Example 122] | A (EC1.5<1 μM) | ≥ 150
18 | O=C(Nc1ccc(F)cn1)N1c2nc(-c3ccccc3C(F)(F)F)ccc2N2CC[C@H]1C2 [Example 123] | C (EC1.5>25 μM) | < 150
19 | COc1cnc(NC(=O)N2c3nc(-c4cccc(Cl)c4)ccc3N3CC[C@H]2C3)cn1 [Example 124] | B (EC1.5 1-25 μM) | ≥ 150
20 | O=C(Nc1ccc(F)cn1)N1c2nc(-c3ccnc(C(F)(F)F)c3)ccc2N2CC[C@H]1C2 [Example 128] | A (EC1.5<1 μM) | ≥ 150

Row | SMILES | Tryp AVG EC1.5 (μM) | Emax [%]
21 | O=C(Nc1ccc(F)cn1)N1c2nc(-c3cccc(OC(F)(F)F)c3)ccc2N2CC[C@H]1C2 [Example 129] | A (EC1.5<1 μM) | ≥ 150
22 | N#Cc1cccc(-c2ccc3c(n2)N(C(=O)Nc2ccc(F)cn2)[C@H]2CCN3C2)c1 [Example 130] | A (EC1.5<1 μM) | ≥ 150
23 | O=C(Nc1ccc(F)cn1)N1c2nc(-c3cccc(N4CCCC4)c3)ccc2N2CC[C@H]1C2 [Example 131] | B (EC1.5 1-25 μM) | ≥ 150
24 | COc1cc(NC(=O)N2c3nc(-c4cccc(N5CCCC5)c4)ccc3N3CC[C@H]2C3)ncn1 [Example 132] | B (EC1.5 1-25 μM) | ≥ 150
25 | COc1cc(NC(=O)N2c3nc(-c4ccnc(C(F)(F)F)c4)ccc3N3CC[C@H]2C3)ncn1 [Example 133] | A (EC1.5<1 μM) | ≥ 150
26 | COc1cc(NC(=O)N2c3nc(-c4ccccc4C(F)(F)F)ccc3N3CC[C@H]2C3)ncn1 [Example 134] | C (EC1.5>25 μM) | < 150
27 | COc1cc(NC(=O)N2c3nc(-c4cccc(OC(F)(F)F)c4)ccc3N3CC[C@H]2C3)ncn1 [Example 135] | A (EC1.5<1 μM) | ≥ 150
28 | O=C(Nc1ccccn1)N1c2nc(-c3cccc(N4CCCC4)c3)ccc2N2CC[C@H]1C2 [Example 136] | A (EC1.5<1 μM) | ≥ 150
29 | O=C(Nc1ccccn1)N1c2nc(-c3ccccc3C(F)(F)F)ccc2N2CC[C@H]1C2 [Example 137] | C (EC1.5>25 μM) | < 150
30 | O=C(Nc1ccccn1)N1c2nc(-c3cccc(OC(F)(F)F)c3)ccc2N2CC[C@H]1C2 [Example 138] | A (EC1.5<1 μM) | ≥ 150
31 | N#Cc1cccc(-c2ccc3c(n2)N(C(=O)Nc2ccccn2)[C@H]2CCN3C2)c1 [Example 139] | A (EC1.5<1 μM) | ≥ 150
32 | COc1cc(NC(=O)N2c3nc(-c4cccc(C#N)c4)ccc3N3CC[C@H]2C3)ncn1 [Example 140] | A (EC1.5<1 μM) | ≥ 150
33 | O=C(Nc1ccc(F)cn1)N1c2nc(-c3cccc(Cl)c3)ccc2N2CCC[C@H]1C2 [Example 141] | A (EC1.5<1 μM) | ≥ 150
34 | O=C(Nc1ccccn1)N1c2nc(-c3ccnc(C(F)(F)F)c3)ccc2N2CC[C@H]1C2 [Example 142] | A (EC1.5<1 μM) | ≥ 150
35 | O=C(Nc1cccnn1)N1c2nc(C3CCCC(C(F)(F)F)C3)ccc2N2CC[C@H]1C2 (some centres unmarked) [Example 143] | B (EC1.5 1-25 μM) | ≥ 150
36 | O=C(Nc1ccc(F)cn1)N1c2nc(C3CCCC(C(F)(F)F)C3)ccc2N2CC[C@H]1C2 (some centres unmarked) [Example 144] | B (EC1.5 1-25 μM) | ≥ 150
37 | O=C(Nc1cncc(F)c1)N1c2nc(C3CCCC(C(F)(F)F)C3)ccc2N2CC[C@H]1C2 (some centres unmarked) [Example 145] | A (EC1.5<1 μM) | ≥ 150
38 | O=C(Nc1ccc(F)cn1)N1c2nc(-c3cccc(OC[C@@H](O)CO)c3)ccc2N2CC[C@H]1C2 [Example 146] | B (EC1.5 1-25 μM) | ≥ 150
39 | N#Cc1cccc(-c2ccc3c(n2)N(C(=O)Nc2ccncc2F)[C@H]2CCN3C2)c1 [Example 147] | B (EC1.5 1-25 μM) | ≥ 150
